Measurements published in patent US12448399B2, “Cereblon-based KRAS degrading PROTACs and uses related thereto” (Arvinas Operations, Inc., priority 2023, dated 2025).

Molecular target: T1, KRas-G12D (Homo sapiens, UniProt P01116, G12D)
T1 construct: insert the HiBiT tag onto the N-terminus of one or more of the endogenous KRas alleles; host or cells: AsPC-1 HiBiT-KRasG12D knock-in clone (one tagged allele, two untagged KRasG12D alleles)
Assay: HiBiT Degradation Assay (G12D), AsPC-1 HiBiT-KRasG12D cells, 24 hr
Format: cell-based
Details: for Dmax: ASPC1, AsPC-1 cells, maximum degradation observed; for DC50: AsPC-1 cells
How it was run: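 AsPC-1 cells with CRISPR N-terminal HiBiT knock-in on one endogenous KRasG12D allele, treated 24 hr at 37° C with compound titrations in 0.5% DMSO. Lytic HiBiT luminescence normalized to DMSO, fitted to a 4-parameter model for DC50 and Dmax. Parallel alamar blue (4 hr) checked viability.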

T1 sequence (P01116 1-188 isoform P01116-2 G12D): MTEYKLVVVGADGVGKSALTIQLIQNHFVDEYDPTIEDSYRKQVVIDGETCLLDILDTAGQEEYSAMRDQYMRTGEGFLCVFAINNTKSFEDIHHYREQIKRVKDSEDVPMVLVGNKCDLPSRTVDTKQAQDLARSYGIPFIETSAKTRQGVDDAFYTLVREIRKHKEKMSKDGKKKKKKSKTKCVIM

SMILES | Dmax [%] | DC50 [µM]
C#Cc1c(F)ccc2cc(O)cc(-c3ncc4c(N5CC6CCC(C5)N6)nc(OCCN5CCC(C)(CC6CCN(CC7CCN(c8ccc9c(c8)n(C)c(=O)n9C8CCC(=O)NC8=O)CC7)CC6)CC5)nc4c3F)c12 (stereo not shown) [Compound 161, 3-{5-[4-({4-[(1-{2-[(4-{3,8-diazabicyclo[3.2.1]octan-3-yl}-7-(8-ethynyl-7-fluoro-3-hydroxynaphthalen-1-yl)-8-fluoropyrido[4,3-d]pyrimidin-2-yl)oxy]ethyl}-4-methylpiperidin-4-yl)methyl]piperidin-1-yl}methyl)piperidin-1-yl]-3-methyl-2-oxo-2,3-dihydro-1H-1,3-benzodiazol-1-yl}piperidine-2,6-dione] | > 70 | < 5.1
C#Cc1c(F)ccc2cc(O)cc(-c3ncc4c(N5CC6CCC(C5)N6)nc(OCCN5CCN(CC6CCN(CC7CCN(c8ccc9c(c8)n(C)c(=O)n9C8CCC(=O)NC8=O)CC7)CC6)CC5(C)C)nc4c3F)c12 (stereo not shown) [Compound 162, 3-{5-[4-({4-[(4-{2-[(4-{3,8-diazabicyclo[3.2.1]octan-3-yl}-7-(8-ethynyl-7-fluoro-3-hydroxynaphthalen-1-yl)-8-fluoropyrido[4,3-d]pyrimidin-2-yl)oxy]ethyl}-3,3-dimethylpiperazin-1-yl)methyl]piperidin-1-yl}methyl)piperidin-1-yl]-3-methyl-2-oxo-2,3-dihydro-1H-1,3-benzodiazol-1-yl}piperidine-2,6-dione] | > 70 | < 5.1
C#Cc1c(F)ccc2cc(O)cc(-c3ncc4c(N5CC6CCC(C5)N6)nc(OCCN5CCC(CC6CCN(CC7CCN(c8ccc9c(c8F)CN([C@@H]8CCC(=O)NC8=O)C9=O)CC7)CC6)CC5)nc4c3F)c12 [Compound 163, (3R)-3-{5-[4-({4-[(1-{2-[(4-{3,8-diazabicyclo[3.2.1]octan-3-yl}-7-(8-ethynyl-7-fluoro-3-hydroxynaphthalen-1-yl)-8-fluoropyrido[4,3-d]pyrimidin-2-yl)oxy]ethyl}piperidin-4-yl)methyl]piperidin-1-yl}methyl)piperidin-1-yl]-4-fluoro-1-oxo-2,3-dihydro-1H-isoindol-2-yl}piperidine-2,6-dione] | > 70 | < 5.1
C#Cc1c(F)ccc2cc(O)cc(-c3ncc4c(N5CC6CCC(C5)N6)nc(OC[C@@H]5C[C@@H](OC6CCN(CC7CN(c8ccc9c(c8)CN(C8CCC(=O)NC8=O)C9=O)C7)CC6)CN5C)nc4c3F)c12 (stereo partly drawn) [Compound 164, 3-(5-{3-[(4-{[(3R,5S)-5-{[(4-{3,8-diazabicyclo[3.2.1]octan-3-yl}-7-(8-ethynyl-7-fluoro-3-hydroxynaphthalen-1-yl)-8-fluoropyrido[4,3-d]pyrimidin-2-yl)oxy]methyl}-1-methylpyrrolidin-3-yl]oxy}piperidin-1-yl)methyl]azetidin-1-yl}-1-oxo-2,3-dihydro-1H-isoindol-2-yl)piperidine-2,6-dione] | > 70 | < 5.1
C#Cc1c(F)ccc2cc(O)cc(-c3ncc4c(N5CC6CCC(C5)N6)nc(OC[C@@H]5C[C@@H](OC6CCN(CC7CCN(c8ccc9c(c8)CN(C8CCC(=O)NC8=O)C9=O)CC7)CC6)CN5CC)nc4c3F)c12 (stereo partly drawn) [Compound 165, 3-(5-{4-[(4-{[(3R,5S)-5-{[(4-{3,8-diazabicyclo[3.2.1]octan-3-yl}-7-(8-ethynyl-7-fluoro-3-hydroxynaphthalen-1-yl)-8-fluoropyrido[4,3-d]pyrimidin-2-yl)oxy]methyl}-1-ethylpyrrolidin-3-yl]oxy}piperidin-1-yl)methyl]piperidin-1-yl}-1-oxo-2,3-dihydro-1H-isoindol-2-yl)piperidine-2,6-dione] | > 70 | < 5.1
C#Cc1c(F)ccc2cc(O)cc(-c3ncc4c(N5CC6CCC(C5)N6)nc(OCCN5CCC(CN6CCC(CC7CCN(c8ccc9c(c8F)n(C)c(=O)n9C8CCC(=O)NC8=O)CC7)CC6)CC5)nc4c3F)c12 (stereo not shown) [Compound 166, 3-{5-[4-({1-[(1-{2-[(4-{3,8-diazabicyclo[3.2.1]octan-3-yl}-7-(8-ethynyl-7-fluoro-3-hydroxynaphthalen-1-yl)-8-fluoropyrido[4,3-d]pyrimidin-2-yl)oxy]ethyl}piperidin-4-yl)methyl]piperidin-4-yl}methyl)piperidin-1-yl]-4-fluoro-3-methyl-2-oxo-2,3-dihydro-1H-1,3-benzodiazol-1-yl}piperidine-2,6-dione] | > 70 | < 5.1
C#Cc1c(F)ccc2cc(O)cc(-c3ncc4c(N5CC6CCC(C5)N6)nc(OCCN5CCC(CN6CCC(CC7CCN(c8ccc9c(c8F)n(C(C)C)c(=O)n9C8CCC(=O)NC8=O)CC7)CC6)CC5)nc4c3F)c12 (stereo not shown) [Compound 167, 3-{5-[4-({1-[(1-{2-[(4-{3,8-diazabicyclo[3.2.1]octan-3-yl}-7-(8-ethynyl-7-fluoro-3-hydroxynaphthalen-1-yl)-8-fluoropyrido[4,3-d]pyrimidin-2-yl)oxy]ethyl}piperidin-4-yl)methyl]piperidin-4-yl}methyl)piperidin-1-yl]-4-fluoro-2-oxo-3-(propan-2-yl)-2,3-dihydro-1H-1,3-benzodiazol-1-yl}piperidine-2,6-dione] | – | < 5.1
C#Cc1c(F)ccc2cc(O)cc(-c3ncc4c(N5CC6CCC(C5)N6)nc(OCCN5CCC(CN6CCN(CC7CCN(c8ccc9c(c8F)CN(C8CCC(=O)NC8=O)C9=O)CC7)CC6)CC5(C)C)nc4c3F)c12 (stereo not shown) [Compound 168, 3-{5-[4-({4-[(1-{2-[(4-{3,8-diazabicyclo[3.2.1]octan-3-yl}-7-(8-ethynyl-7-fluoro-3-hydroxynaphthalen-1-yl)-8-fluoropyrido[4,3-d]pyrimidin-2-yl)oxy]ethyl}-2,2-dimethylpiperidin-4-yl)methyl]piperazin-1-yl}methyl)piperidin-1-yl]-4-fluoro-1-oxo-2,3-dihydro-1H-isoindol-2-yl}piperidine-2,6-dione] | > 70 | < 5.1
C#Cc1c(F)ccc2cc(O)cc(-c3ncc4c(N5CC6CCC(C5)N6)nc(OCCN5CCC(CN6CCN(CC7CCN(c8ccc9c(c8F)CN(C8CCC(=O)NC8=O)C9=O)CC7)C(C)(C)C6)CC5)nc4c3F)c12 (stereo not shown) [Compound 169, 3-{5-[4-({4-[(1-{2-[(4-{3,8-diazabicyclo[3.2.1]octan-3-yl}-7-(8-ethynyl-7-fluoro-3-hydroxynaphthalen-1-yl)-8-fluoropyrido[4,3-d]pyrimidin-2-yl)oxy]ethyl}piperidin-4-yl)methyl]-2,2-dimethylpiperazin-1-yl}methyl)piperidin-1-yl]-4-fluoro-1-oxo-2,3-dihydro-1H-isoindol-2-yl}piperidine-2,6-dione] | > 70 | < 5.1
C#Cc1c(F)ccc2cc(O)cc(-c3ncc4c(N5CC6CCC(C5)N6)nc(OCCN5CCC(CN6CCC(CC7CCN(c8cc(C)c9c(c8F)CN(C8CCC(=O)NC8=O)C9=O)CC7)CC6)CC5)nc4c3F)c12 (stereo not shown) [Compound 170, 3-{5-[4-({1-[(1-{2-[(4-{3,8-diazabicyclo[3.2.1]octan-3-yl}-7-(8-ethynyl-7-fluoro-3-hydroxynaphthalen-1-yl)-8-fluoropyrido[4,3-d]pyrimidin-2-yl)oxy]ethyl}piperidin-4-yl)methyl]piperidin-4-yl}methyl)piperidin-1-yl]-4-fluoro-7-methyl-1-oxo-2,3-dihydro-1H-isoindol-2-yl}piperidine-2,6-dione] | > 70 | < 5.1
